ChEMBL document CHEMBL3507680, “University of Dundee, Gates Library screen for HepG2 cell viability”

Test: Human HepG2 cell viability assay in 384 well format
Assay type: toxicity, cell-based
Parameters: dose 125 nL, time 70.5 hour; cytotoxicity at 70.5 h: concentration not given beside the values
Settings: HepG2 cells, read-out: Inhibition

Row | SMILES | cytotoxicity at 70.5 h [%]
1 | c1csc(CN2Cc3nccn3CC(Cn3cncn3)C2)c1 (centres undefined) | 2.43
2 | COc1cccc(Cn2cc(N3C(=O)[C@H]4CCCC[C@H]4C3=O)cn2)c1 | 26.3
3 | CN(C)S(=O)(=O)N1C[C@@H]2CC[C@H](C1)N(Cc1ccc3[nH]ccc3c1)C2 | -5.61
4 | CC(C)Nc1ncnc2c1CCN(C(=O)CCc1ccccc1)CC2 | -3.23
5 | CCOc1ccnc(N2CCN(Cc3ncccc3C)CC2)n1 | 3.5
6 | CN(C)CCNCC1(O)CCCN(Cc2cccc(F)c2F)C1=O (centres undefined) | 16.1
7 | CC(O)CN1CCN(C(=O)c2cc3ccccc3[nH]c2=O)CC1 (centres undefined) | -11
8 | O=C(C[C@@H]1COC[C@H]2CN(C3CCC3)C[C@@H]12)NCc1cccnc1 | -16.6
9 | Cc1nnc([C@@]23CCO[C@@H]2CCN(Cc2nccs2)C3)o1 | -9.1
10 | COCCN1CCc2ccccc2NCCC1=O | -6.61
11 | Cc1ccc(OCCN2CCCC(c3cc(C(N)=O)[nH]n3)C2)cc1 (centres undefined) | -5.38
12 | CCn1cc(S(=O)(=O)N2CCC(C3CCCCN(C)C3=O)CC2)c(C)n1 (centres undefined) | 7.12
13 | CSCC[C@H](NC(=O)Cn1ccc2c(Br)cccc21)C(=O)O | -21.8
14 | CCc1ccc(CN(CCCn2ccnc2)Cc2ccc(C)s2)o1 | 21.1
15 | CCc1cccc(N2CCC(NC(=O)c3ccco3)CC2)c1 | -3.29
16 | CC(C)N(C)S(=O)(=O)N1CCN(Cc2ccco2)CC1 | -5.12
17 | Cn1cnc2c1C(COCC1CCOCC1)CN(Cc1ccccn1)C2 (centres undefined) | -15.9
18 | CCc1csc(CNc2cc(C)nc(-c3cccnc3)n2)n1 | -7.79
19 | CC(C)CCC(=O)NCc1ccc(N2CCCCC2)cc1 | -9.32
20 | Cc1nonc1C(=O)N1CC[C@@]2(O)CCN(C3CCCCC3)C[C@H]2C1 | -9.95
21 | Cc1nn(C)cc1-c1cc(C(F)F)nc(NC2CCCCC2)n1 | -11.8
22 | CCCc1cc(C(=O)N[C@@H](CO)[C@@H](O)c2ccccc2)n(C)n1 | 0.909
23 | COC(=O)CCC(=O)N1CCc2[nH]nc(-c3ccc(F)c(F)c3)c2C1 | -8.06

Row | SMILES | cytotoxicity at 70.5 h [%]
24 | N#CCCN(CC1CCCO1)C(=O)c1ccc(C#N)cc1 (centres undefined) | -2.77
25 | CN(C)S(=O)(=O)N1CCCC(CCC(=O)Nc2ccc(Cl)cc2)C1 (centres undefined) | 42.2
26 | CCN(C)c1ncnc2c1CCN(Cc1ccsc1)CC2 | 0.529
27 | COC(=O)CC(NC(=O)CCCn1cccn1)c1ccc(Cl)cc1 (centres undefined) | -14.1
28 | COCCn1cc(NC(=O)C(C)CCc2ccccc2F)ccc1=O (centres undefined) | -11.1
29 | Cc1nc(CN(C)C(=O)Nc2cnn(CC3CCCO3)c2)cs1 (centres undefined) | -1.56
30 | Cn1ccnc1CN1CCC2(CCCN2c2ncccn2)CC1 | -0.454
31 | O=C(CC1=CCCCC1)N1CCC(Cn2cc(CCO)nn2)CC1 | -11.5
32 | COc1ccc(C(=O)N2CCOCC2c2[nH]ncc2C)cc1F (centres undefined) | -3.4
33 | CS(=O)(=O)Cc1ccc(C(=O)NCC2Cc3ccccc3O2)cc1 (centres undefined) | -0.3
34 | CNCc1ccc([C@@H]2CN(C(C)=O)C[C@H]2C(N)=O)cc1 | -7.99
35 | Cc1cc(F)cc(S(=O)(=O)Nc2ccn(CCCC#N)n2)c1 | -9.51
36 | CN(C)c1nccc(NCc2cc(-c3ccco3)n[nH]2)n1 | -3.1
37 | Cc1cc(C)nc(CCNc2nccc(CCC(F)(F)F)n2)n1 | 8.35
38 | Cc1cnn(C2CN(CC(O)COc3ccc(C#N)cc3)C2)c1 (centres undefined) | -3.3
39 | O=C(c1ccoc1)N1CCC2(CCCN(c3ncc(F)cn3)C2)C1 (centres undefined) | -1.48
40 | O=C(c1ccc(C2CCCN2)s1)N1CC=CC1 (centres undefined) | -6.78
41 | c1ccc(CN2CCN(Cc3cscn3)CC2)cc1 | -6.7
42 | COC(=O)CN(Cc1ccccc1C)C(=O)C1CCC1 | 8.03
43 | COc1cc(F)ccc1-c1nc2c([nH]1)c(C1CC1)nn2C | -10.9
44 | CCN1CCN(C(C)CNC(=O)Nc2nc3ccccc3s2)CC1 (centres undefined) | -7.3
45 | COc1ccccc1OCCCc1cccc(C#N)n1 | -1.85
46 | CC(C)(C)c1cc(C[C@H]2CNCC[C@H]2CC(=O)NC2CCCCC2)no1 | 2.18

Row | SMILES | cytotoxicity at 70.5 h [%]
47 | CCn1ccnc1CNCC1CCN(CC(O)c2ccccc2)CC1 (centres undefined) | -11
48 | C=Cc1cccc(CN(Cc2cnn(C)c2)C2CC2)c1 | -9.54
49 | Cc1nc(C)n(CC2CCCN(c3ncnc4sccc34)C2)n1 (centres undefined) | 29.9
50 | Cc1noc(C)c1C(=O)N1Cc2ncn(C)c2C(COCC2CC2)C1 (centres undefined) | -7.58
51 | CCn1ccc2ccnc(CC3CN(C(=O)c4ccc(F)cc4)C3)c21 | -6.52
52 | CC(O)CN1CCN(Cc2csc(-c3ncccn3)n2)CC1 (centres undefined) | 5.33
53 | Cc1cc(CN2CCC(CNC(=O)c3noc4c3CCCC4)C2)[nH]n1 (centres undefined) | 13.3
54 | Cc1ncsc1C(=O)NCCSCCCO | 9.95
55 | Cc1cnn(CCNCC(O)c2ccc(F)c(F)c2)c1 (centres undefined) | 3.17
56 | O=S1(=O)[C@@H](c2ccccc2)[C@H](CO)CN1c1ccccc1 | -4.62
57 | Cc1nc(Nc2nnc(C)s2)cc(C2CCCN2c2ccncc2)n1 (centres undefined) | -5.11
58 | CCN(Cc1cnn(C)c1)C(=O)c1cc2ccccc2c(=O)[nH]1 | -7.09
59 | CC(=O)N1N=C(c2cccs2)OC1C(=O)Nc1ccc(C(C)C)cc1 (centres undefined) | -2.48
60 | CCc1ccc(CN2C[C@H](OC)[C@H]3COC[C@H]32)o1 | -0.659
61 | O=C(Cc1cccs1)N1CCCC(CNS(=O)(=O)Cc2ccccc2)C1 (centres undefined) | -5.58
62 | Cc1[nH]nc2ncc(C(=O)N3CCN(CC(C)(C)O)CC3)cc12 | -0.78
63 | CN(C)CCOCC1CN(Cc2ccsc2)Cc2nnn(C)c21 (centres undefined) | 30.5
64 | COCCCN1CCCN(C(C)C(=O)Nc2cccc(I)c2)CC1 (centres undefined) | 21.2
65 | CN(C)CCCN(Cc1ccco1)Cc1ccnn1C1CCCCO1 (centres undefined) | -8.64
66 | CC(=O)c1cccc(NS(=O)(=O)c2cc(C)c(C(=O)O)s2)c1 | -4.79
67 | CC(C)Oc1ncccc1CNC(=O)c1ccc(=O)[nH]n1 | -3.21
68 | N#Cc1ccnc(N2CCN(CC(O)c3cc(F)ccc3F)CC2)c1 (centres undefined) | -5.77
69 | Cn1cc(CN2CCn3cnc(COCC4CC4)c3C2)cn1 | 14.1

Row | SMILES | cytotoxicity at 70.5 h [%]
70 | COc1ccc(C(=O)NCc2cc(N3CCOCC3)ncn2)o1 | 17.5
71 | CCS(=O)(=O)N1CCC2(CN(C(=O)c3cn(C)cn3)C2)C1 | 8.36
72 | N#Cc1cccnc1N1CCCN(C(=O)CCc2nccs2)CC1 | -1.9
73 | COc1ccc(Br)cc1SCCC(N)=O | -0.68
74 | Cc1nn(CCc2nnc(NCC(C)C)s2)c(C)c1Br | -16
75 | c1nc(N2CCOC(Cn3cncn3)C2)c2sccc2n1 (centres undefined) | 29
76 | O=C1CSC(c2ccc(F)c(Cl)c2)c2c(n(C3CCOCC3)[nH]c2=O)N1 (centres undefined) | 10.3
77 | Cc1nc(C)n(C2CCCN(C(=O)CCCNc3ncccn3)C2)n1 (centres undefined) | -4.88
78 | CCC1CN(C(=O)CN2CCN(c3nccc(OC)n3)CC2)CCO1 (centres undefined) | -12.3
79 | CN(Cc1nc(-c2cccnc2)no1)C(=O)c1cnc2n1CCCC2 | -6.12
80 | CCC(CC)CN1CCN(CC(=O)Nc2cccc3nsnc23)CC1 | -15.1
81 | Cc1csc(N2CCCN(C(=O)C(C)n3ccnc3)CC2)n1 (centres undefined) | -3.25
82 | COc1ccc(C)cc1C(C)NC(=O)NCCCn1cncn1 (centres undefined) | -10.9
83 | c1ccc(CN2C[C@H]3CCC[C@@]3(COCC3CC3)C2)nc1 | -0.925
84 | CCOCCOC(C)C(=O)Nc1ccc2ccn(CCN(C)C)c2c1 (centres undefined) | -1.63
85 | CCS(=O)(=O)N1CCCC2(COCCN(c3cnccn3)C2)C1 (centres undefined) | -2.48
86 | Fc1ccccc1CN1CCCC(NC2CCOCC2)C1 (centres undefined) | -9.48
87 | N#CC1(NC(=O)c2ccc(F)cc2OC(F)F)CCOCC1 | -10.6
88 | O=C1CC2(CCN(Cc3ccc(Cl)s3)C2)C(=O)N1 (centres undefined) | -9.8
89 | CCCN(C(=O)CCS(=O)(=O)Cc1ccccc1)c1cccc(C)c1 | -4.29
90 | c1cc(CN2CCOCC3(CCNCC3)C2)ccn1 | 23
91 | CC(C)CC1COCCN1C(=O)Cc1cccs1 (centres undefined) | -4.92
92 | O=C(CCC(F)(F)F)N1CCCC(c2ncc[nH]2)C1 (centres undefined) | 42.3

Row | SMILES | cytotoxicity at 70.5 h [%]
93 | Cc1cccnc1[C@H](C)NC(=O)c1cccc(CC2CCNCC2)c1 | 0.55
94 | Cc1ccccc1-c1cncc(C2CCN(C(=O)CN(C)C)CC2)n1 | 23.3
95 | CC(=O)c1cn(CCC(=O)Nc2c3c(nn2C)CSC3)c2ccccc12 | 14.7
96 | CCCS(=O)(=O)N1CCN(C(C)(C)CO)CC1 | 15.5
97 | CCS(=O)(=O)N1Cc2ccnn2CC(c2nc(C)no2)C1 (centres undefined) | -9.51
98 | Cc1ccc(C)n1-c1c(C(=O)NCC(c2ccsc2)N(C)C)cnn1C (centres undefined) | -14.4
99 | Cc1ccc(Cn2ccc(NS(C)(=O)=O)n2)cc1 | -10.8
100 | CC(C)(C)S(=O)(=O)CCNC(=O)c1ccc2ccccc2c1 | 0.161
101 | CC(C)CN(C(=O)Nc1cccc(C(=O)N(C)C)c1)C1CC1 | -10.3
102 | O=S(=O)(C1CC1)N1CCOC2(CCCN(Cc3ccccn3)C2)C1 (centres undefined) | -5.41
103 | Cc1nc(C)c(CNC(=O)N2CCc3ccccc3C2CO)s1 (centres undefined) | -1.94
104 | CN(C)C(=O)[C@@H]1CCO[C@@H]2CCN(CCOCc3ccccc3)C[C@H]21 | 20.6
105 | C[C@@H]1C[C@H]2CN(C(=O)C3=CCCC3)C[C@H]2O1 | -4.11
106 | CNC(=O)c1cc2c(nc1NCC(C)C)CCN(CCOC)CC2 | 4.78
107 | CC(C)c1nccn1CCn1cnc2ccsc2c1=O | -8.28
108 | O=C(NCCN1CCC(c2cccs2)CC1)c1ccccc1C(F)(F)F | 1.14
109 | Cc1ccc(C(=O)NC2CCCN(c3ncccn3)C2)cn1 (centres undefined) | 19.3
110 | Fc1cc(CNCCn2cccn2)ccc1-n1cncn1 | 1.79
111 | O=C(NCc1nncn1C1CC1)C1(c2ccc(F)cc2)CCCC1 | 14.3
112 | Cc1cc(NC(=O)CCn2nc(C)c3ccccc32)n(C)n1 | -1.96
113 | CCn1cnnc1CNC(=O)N(C)Cc1ccc(F)c(F)c1 | -5.87
114 | COCCN(Cc1ccco1)Cc1nc(-c2ccc(C)c(F)c2)no1 | 17.2
